Measurements from patent US12208118B2, “Pharmaceutical compositions for delivery of peptide” (ANYA BIOPHARM INC., priority 2017, dated 2025).

Legend:
[1] = Quantification of liraglutide level in dog plasma using ELISA kit; type: in vivo; details: following subcutaneous and oral administration, dogs
Description: Quantification of Liraglutide Level in Dog Plasma Using ELISA Kit
Test formulation I: Liraglutide—Appearance: Solution for injection in a prefilled pen; Concentration: 6 mg/ml; Date of manufacture: February 2017; Date of expiry: July 2019; Storage condition: 2-8° C.; Dose: 0.6 mg/dog; Route: SC.
Test formulation II (FA): MIRA 5 (Table 15E)+PA 2 (Table 16F)—Dose: 12 mg (one capsule)/dog; Route: Oral.
Test formulation III (G): MIRA 5 (Table 15E)+PA 3+4 (Table 16G)—Dose: 12 mg (one capsule)/dog; Route: Oral
The clinical signs observed are normal. Body weights of the dogs used in the study were recorded prior to dosing. During the period of dose administration, the dogs (Canis lupus familiaris. Breed: Beagle) were fasted (water allowed) overnight for approx. 12 hours prior to and 4 hours post dose administration. During dosing, the blood collection time points was at 0, 20, 30, 60, 120, 180, 240, 480 minutes post dose. […] Glucose was measured immediately after blood collection using Glucometer. […]
Kit Protocol: Used manufacturer recommended protocol (Cat.No.KBI5020) Ver2.0—(1) Determine wells for diluted standard, blank and sample. […] Add 50 μL each of dilutions of standard (read Reagent Preparation), blank and samples into the appropriate wells, respectively. […] Then, run the microplate reader and conduct measurement at 450 nm immediately.

[2] = Quantification of octreotide in rat plasma using ELISA kit; type: in vivo, S.D. rat; details: following subcutaneous and distal small intestine (ileum) administration, rats
Description: Quantification of Octreotide in Rat Plasma Using ELISA Kit
Test formulation I: Octreotide—Apprearance: Solution for injection; Concentration: 0.1 mg/ml; Storage condition: 2-8° C.; Dose: 10 μg/kg; Route: SC.
Test formulation II: MIRA 3 (Table 15C)+PA 1 (Table 16C) to be dosed into distal small intestine (ileum) to anesthetized S.D. rat; Dose: 144 μg/animal; Route: distal small intestine (ileum). During the experiment, the animals were non-fasted.
The clinical signs observed are normal. During dosing, the blood collection time points were at 0, 7, 15, 30, 45, 60 and 90 min post dose. ˜100 μl of blood was collected in a pre-filled Na-EDTA eppendorf, from retro-orbital sinus puncture. Blood was centrifuged at 5000 rpm, 5 min, 4° c. to obtain plasma.
Source: PeninsulaLaboratories International, Inc, Cat. No. S-1341.0001
Kit Protocol: Used manufacturer recommended protocol (Cat. No. S-1341.0001)—Into each well of the immunoplate add 25 μl antiserum (in EIA buffer). Add 25 μl EIA buffer to blank wells; Incubate at room temperature for 1 hour; Add 50 μl standard or sample (in diluent). […] Add 50 μl diluent to blank wells; Incubate at room temperature for 2 hours. […] You may read the developing blue color at 650 nm and use the data for your calculations. […] Read absorbance at 450 nm within ten minutes.

[3] = Quantification of teriparatide in rat plasma using ELISA kit; type: in vivo, S.D. rats; details: following subcutaneous and distal small intestine (ileum) administration, rats
Description: Quantification of Teriparatide in Rat Plasma Using ELISA Kit
Test formulation I: Teriparatide; Apprearance: Solution for injection; Concentration: 600 μg/2.4 ml; Storage condition: 2-8° C.; Dose: 10 μg/animal; Route: SC.
Test formulation II: MIRA 4 (Table 15D) plus PA1 (Table 16D) was dosed into distal small intestine (ileum) at a dose of 240 μg/animal to anesthetized rats; Dose: 240 μg/animal; Route: distal small intestine (ileum).
Test formulation III: MIRA 1 (Table 15A) plus PA3 (Table 16E) was dosed into distal small intestine (ileum) at a dose of 240 μg/animal to anesthetized S.D. rats; Dose: 240 μg/animal; Route: distal small intestine (ileum).
During the experiment, the animals were non-fasted. […] The clinical signs observed are normal. […]
Kit Protocol: Used manufacturer recommended protocol (Cat.No. 60-3900)—Place a sufficient number of Streptavidin Coated Strips in a holder to run PTH standards, controls and unknown samples; Pipet 150 μL of standard, control, or sample into the designated or mapped well. […] Read the absorbance at 620 nm (see Note) within 5 minutes in a microtiter plate reader against the 0 μg/mL Standard wells as a blank; Immediately pipet 50 μL of ELISA Stop Solution into each of the wells. […]

CCCCCCCCCCCCCCCC(=O)N[C@@H](CCC(=O)NCCCC[C@H](NC(=O)[C@H](C)NC(=O)[C@H](C)NC(=O)[C@H](CCC(N)=O)NC(=O)CNC(=O)[C@H](CCC(=O)O)NC(=O)[C@H](CC(C)C)NC(=O)[C@H](Cc1ccc(O)cc1)NC(=O)[C@H](CO)NC(=O)[C@H](CO)NC(=O)[C@@H](NC(=O)[C@H](CC(=O)O)NC(=O)[C@H](CO)NC(=O)[C@@H](NC(=O)[C@H](Cc1ccccc1)NC(=O)[C@@H](NC(=O)CNC(=O)[C@H](CCC(=O)O)NC(=O)[C@H](C)NC(=O)[C@@H](N)Cc1cnc[nH]1)[C@@H](C)O)[C@@H](C)O)C(C)C)C(=O)N[C@@H](CCC(=O)O)C(=O)N[C@@H](Cc1ccccc1)C(=O)N[C@H](C(=O)N[C@@H](C)C(=O)N[C@@H](Cc1c[nH]c2ccccc12)C(=O)N[C@@H](CC(C)C)C(=O)N[C@H](C(=O)N[C@@H](CCCNC(=N)N)C(=O)NCC(=O)N[C@@H](CCCNC(=N)N)C(=O)NCC(=O)O)C(C)C)[C@@H](C)CC)C(=O)O [Liraglutide]
clinical signs [1]: normal
mortality [1]: no mortality observed

C[C@@H](O)[C@@H]1NC(=O)[C@H](CCCCN)NC(=O)[C@@H](Cc2c[nH]c3ccccc23)NC(=O)[C@H](Cc2ccccc2)NC(=O)[C@@H](NC(=O)[C@H](N)Cc2ccccc2)CSSC[C@@H](C(=O)N[C@H](CO)[C@@H](C)O)NC1=O [octreotide]
clinical signs [2]: normal
mortality [2]: no mortality observed

CC[C@H](C)[C@H](NC(=O)[C@H](CCC(=O)O)NC(=O)[C@H](CO)NC(=O)[C@@H](NC(=O)[C@@H](N)CO)C(C)C)C(=O)N[C@@H](CCC(N)=O)C(=O)N[C@@H](CC(C)C)C(=O)N[C@@H](CCSC)C(=O)N[C@@H](Cc1cnc[nH]1)C(=O)N[C@@H](CC(N)=O)C(=O)N[C@@H](CC(C)C)C(=O)NCC(=O)N[C@@H](CCCCN)C(=O)N[C@@H](Cc1cnc[nH]1)C(=O)N[C@@H](CC(C)C)C(=O)N[C@@H](CC(N)=O)C(=O)N[C@@H](CO)C(=O)N[C@@H](CCSC)C(=O)N[C@@H](CCC(=O)O)C(=O)N[C@@H](CCCN=C(N)N)C(=O)N[C@H](C(=O)N[C@@H](CCC(=O)O)C(=O)N[C@@H](Cc1c[nH]c2ccccc12)C(=O)N[C@@H](CC(C)C)C(=O)N[C@@H](CCCN=C(N)N)C(=O)N[C@@H](CCCCN)C(=O)N[C@@H](CCCCN)C(=O)N[C@@H](CC(C)C)C(=O)N[C@@H](CCC(N)=O)C(=O)N[C@@H](CC(=O)O)C(=O)N[C@H](C(=O)N[C@@H](Cc1cnc[nH]1)C(=O)N[C@@H](CC(N)=O)C(=O)N[C@@H](Cc1ccccc1)C(=O)O)C(C)C)C(C)C [teriparatide]
clinical signs [3]: normal
mortality [3]: no mortality observed
